Values quoted from earlier work in patent US10314326B2, “Composition for reducing food intake” (Natures Remedies Ltd, priority 2009, dated 2019).
Where two headings read alike, the source gives them in different places. No end group written: not given here.

How the values were obtained:
[1] = literature; for reduction in food/calorie intake: pharmacological options
[2] = approximately 20 g per day for 7 days, human volunteers
[3] = peripheral injection, rats
[4] = peripheral injection, human subjects
[5] = 14 healthy volunteers

## sodium alginate
[1]; human studies
  reduction in energy intake: 7%

## CCN(CC)C(C)C(=O)c1ccccc1 (stereo not drawn) [diethylpropion]
[1]
  reduction in food/calorie intake: 11-15%

## oligofructose
[1]; human studies
  reduction in total intake: 5%
[2]
  serum GLP-1 levels: increased

## fructooligosaccharides
[1]
  food intake and appetite ratings: not significantly reduced

## glucagon-like peptide-1 (7-36) amide (HAEGTFTSDVSSYLEGQAAKEFIAWLVKGR-NH2; UniProt P01275 98-127, looked up) [GLP-1, anorectic gut peptide secreted by the L-cells]
[3]
  body weight: decreases
  food intake: decreases
[4]
  body weight: decreases
  food intake: decreases
[5]
  motility in the antro-duodeno-jejunal region: decreases

## CNCCC(Oc1ccc(C(F)(F)F)cc1)c1ccccc1 (stereo not drawn) [fluoxetin]
[1]
  reduction in food/calorie intake: 13-16%

## methylcellulose
[1]
  food intake and appetite ratings: not significantly reduced

## O=C(O)CC(O)(C(=O)O)C(O)C(=O)O (stereo not drawn) [HCA-SX, hydroxycitric acid]
[1]; human studies
  decrease in food intake: 4%

## CC(C)CC(N(C)C)C1(c2ccc(Cl)cc2)CCC1 (stereo not drawn) [sibutramine]
[1]
  reduction in food/calorie intake: 12-26%

## beta-glucan
[1]
  food intake and appetite ratings: not significantly reduced
